According to patent publication US20230041563A1, “N-(1,3,4-OXADIAZOL-2-YL)ARYLCARBOXAMIDES OR SALTS THEREOF, PREPARATION METHODS, HERBICIDAL COMPOSITIONS AND USES THEREOF” (priority 2018, published 2023):

What was measured:
Format in all cases: in vivo
[1] = system: Indica rice (Huanghuazhan); assay: Safety test of control experiments on rice
Source text: (§1) The activity level criteria for plant damage (i.e., growth control rate) are as follows: Comparative Experiments: [table]

[2] = system: Japonica rice (Huaidao No. 5); assay: Safety test of control experiments on rice
Source text: as §1

[3] = system: rice and Echinochloa crusgali; assay: Herbicide selection index between rice and Echinochloa crusgali; details: average dose causing 10% phytotoxicity to rice divided by average dose causing 90% control efficiency to Echinochloa crusgali
Amaranthus retroflexus = assay: Weeding effect in post-emergence stage (greenhouse pot spray)
Summary of the method: (§2)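 Read-out: fresh-weight growth control rate scored 3 weeks after spraying, mean of three replicates. Plants treated at 2-3 leaf stage by spray tower, doses 500-15 g a.i./ha (500, 250, 125, 60, 15).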

Stellaria media = assay: as above
Summary of the method: as §2

Abutilon theophrasti = assay: as above
Summary of the method: as §2

Echinochloa crusgalli = assay: as above
Summary of the method: as §2

Digitaria sanguinalis = assay: as above
Summary of the method: as §2

Compound | Indica rice (Huanghuazhan) (plant damage level) ([1]; Dose 125 g a.i./ha) | Japonica rice (Huaidao No. 5) (plant damage level) ([2]; Dose 125 g a.i./ha) | Selection index between rice and Echinochloa crusgali [3] | Amaranthus retroflexus (activity level) (Amaranthus retroflexus; Table 2, dose 250 g a.i./ha) | Stellaria media (activity level) (Stellaria media; Table 2, dose 250 g a.i./ha) | Indica rice (Huanghuazhan) (plant damage level) ([1]; Dose 250 g a.i./ha) | Japonica rice (Huaidao No. 5) (plant damage level) ([2]; Dose 250 g a.i./ha) | Abutilion theophrasti (activity level) (Abutilon theophrasti; Table 2, dose 250 g a.i./ha) | Echinochloa crusgah (activity level) (Echinochloa crusgalli; Table 2, dose 250 g a.i./ha) | Digitaria sanguinalis (activity level) (Digitaria sanguinalis; Table 2, dose 250 g a.i./ha) | also measured
Cc1nnc(NC(=O)c2ccc(C(F)(F)F)c(N3CCCC3=O)c2Cl)o1 [Control Compound C, reference compound] | 5 (Level 5: growth control rate is above 85%) | 4 (Level 4: growth control rate is greater than or equal to 60% and less than 85%) | 1.1 |  |  |  |  |  |  |  | 
CCCS(=O)(=O)c1c(C(F)(F)F)ccc(C(=O)Nc2nnc(C)o2)c1F [Compound 1-9] |  |  | >5 | 5 (Level 5: growth control rate is above 85%) | 5 (Level 5: growth control rate is above 85%) | 0 (Level 0: growth control rate is less than 5%) | 0 (Level 0: growth control rate is less than 5%) | 5 (Level 5: growth control rate is above 85%) | 5 (Level 5: growth control rate is above 85%) | 5 (Level 5: growth control rate is above 85%) | Amaranthus retroflexus (activity level) (Amaranthus retroflexus; Table 2, dose 125 g a.i./ha): 5 (Level 5: growth control rate is above 85%); Stellaria media (activity level) (Stellaria media; Table 2, dose 125 g a.i./ha): 5 (Level 5: growth control rate is above 85%); Abutilion theophrasti (activity level) (Abutilon theophrasti; Table 2, dose 125 g a.i./ha): 5 (Level 5: growth control rate is above 85%); Echinochloa crusgah (activity level) (Echinochloa crusgalli; Table 2, dose 125 g a.i./ha): 5 (Level 5: growth control rate is above 85%); Digitaria sanguinalis (activity level) (Digitaria sanguinalis; Table 2, dose 125 g a.i./ha): 5 (Level 5: growth control rate is above 85%)
CCCSc1c(C(F)(F)F)ccc(C(=O)Nc2nnc(C)o2)c1F [Compound 1-7] |  |  | >5 | 5 (Level 5: growth control rate is above 85%) | 5 (Level 5: growth control rate is above 85%) | 0 (Level 0: growth control rate is less than 5%) | 0 (Level 0: growth control rate is less than 5%) | 5 (Level 5: growth control rate is above 85%) | 5 (Level 5: growth control rate is above 85%) | 5 (Level 5: growth control rate is above 85%) | Amaranthus retroflexus (activity level) (Amaranthus retroflexus; Table 2, dose 500 g a.i./ha): 5 (Level 5: growth control rate is above 85%); Stellaria media (activity level) (Stellaria media; Table 2, dose 500 g a.i./ha): 5 (Level 5: growth control rate is above 85%); Abutilion theophrasti (activity level) (Abutilon theophrasti; Table 2, dose 500 g a.i./ha): 5 (Level 5: growth control rate is above 85%); Echinochloa crusgah (activity level) (Echinochloa crusgalli; Table 2, dose 500 g a.i./ha): 5 (Level 5: growth control rate is above 85%); Digitaria sanguinalis (activity level) (Digitaria sanguinalis; Table 2, dose 500 g a.i./ha): 5 (Level 5: growth control rate is above 85%)
CCS(=O)(=O)c1c(C(F)(F)F)ccc(C(=O)Nc2nnc(C)o2)c1Cl [Control Compound D, reference compound] |  |  | 1 |  |  |  |  |  |  |  | Indica rice (Huanghuazhan) (plant damage level) ([1]; Dose 60 g a.i./ha): 5 (Level 5: growth control rate is above 85%); Japonica rice (Huaidao No. 5) (plant damage level) ([2]; Dose 60 g a.i./ha): 5 (Level 5: growth control rate is above 85%)
Cc1nnc(NC(=O)c2ccc(C(F)(F)F)c(S(C)(=O)=O)c2C)o1 [Control Compound B, reference compound] | 3 (Level 3: growth control rate is greater than or equal to 40% and less than 60%) | 3 (Level 3: growth control rate is greater than or equal to 40% and less than 60%) | 0.8 |  |  | 4 (Level 4: growth control rate is greater than or equal to 60% and less than 85%) | 3 (Level 3: growth control rate is greater than or equal to 40% and less than 60%) |  |  |  | 
